In ChEMBL document CHEMBL1201862, “PubChem BioAssay data set” (2004) one finds IC50, AC50 and EC50 data, which are given here for ten compounds.

Test [1] concerns the target T1, Sentrin-specific protease 1 (Homo sapiens, UniProt Q9P0U3).
T1 sequence (Q9P0U3 whole entry): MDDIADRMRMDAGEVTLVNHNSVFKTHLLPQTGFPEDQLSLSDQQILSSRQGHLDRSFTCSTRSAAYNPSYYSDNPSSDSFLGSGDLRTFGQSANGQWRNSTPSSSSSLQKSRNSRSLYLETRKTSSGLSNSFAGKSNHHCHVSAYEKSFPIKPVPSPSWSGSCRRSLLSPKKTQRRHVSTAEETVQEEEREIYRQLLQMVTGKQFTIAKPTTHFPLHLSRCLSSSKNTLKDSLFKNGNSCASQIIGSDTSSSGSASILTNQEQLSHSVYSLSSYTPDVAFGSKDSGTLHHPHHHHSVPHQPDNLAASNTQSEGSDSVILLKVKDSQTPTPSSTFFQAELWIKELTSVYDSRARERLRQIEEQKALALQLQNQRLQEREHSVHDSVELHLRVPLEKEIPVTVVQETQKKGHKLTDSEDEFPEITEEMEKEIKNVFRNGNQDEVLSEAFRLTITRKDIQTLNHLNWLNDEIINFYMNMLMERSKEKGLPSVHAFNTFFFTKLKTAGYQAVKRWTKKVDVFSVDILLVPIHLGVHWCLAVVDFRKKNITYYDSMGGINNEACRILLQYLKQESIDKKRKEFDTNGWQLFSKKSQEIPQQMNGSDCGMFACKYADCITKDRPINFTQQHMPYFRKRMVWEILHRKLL
As to the kind of experiment: SENP1 catalytic domain blockers, concentration series – biochemical, kinetic FRET, dose response (AID 651697). It counts as functional. The note with it: read-out: IC50_Mean.

Test [2] deals with T1, Sentrin-specific protease 1. Briefly: Dose response confirmation of small molecule inhibitors of the catalytic domain of the SUMO protease, SENP1 in a FRET assay. It counts as functional. The note with it: read-out: IC50_Mean.
A further test addresses Steroidogenic factor 1 (Homo sapiens, UniProt Q13285). Briefly: Counterscreen for inverse agonists of the liver receptor homolog-1 (LRH-1; NR5A2): Luminescence-based cell-based high throughput dose response assay to identify inverse agonists of the Steroidogenic Factor 1 Nuclear Receptor (SF1; NR5A1). Type of test: functional. For orientation: The purpose of a counterscreen is to sort out artefacts and off-target activity.

A short description of test [3]: nonselective StAR promoter luciferase inhibitors – cell-based, luminescence, luciferase reporter, counter-screen for LRH-1 inverse agonist project, dose response (AID 651969). It counts as functional.
Test [4] concerns the target Nuclear receptor subfamily 5 group A member 2 (Homo sapiens, UniProt O00482). Type of test: functional, cell-based.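 Note: HEK293T cells transfected with LRH-1 and a StAR promoter luciferase reporter; potency for inhibitors that lower LRH-1 driven reporter light.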
The target of test [5] is T2, Long-chain-fatty-acid--AMP ligase FadD28 (Mycobacterium tuberculosis, UniProt P9WQ59).
T2 sequence (P9WQ59 whole entry): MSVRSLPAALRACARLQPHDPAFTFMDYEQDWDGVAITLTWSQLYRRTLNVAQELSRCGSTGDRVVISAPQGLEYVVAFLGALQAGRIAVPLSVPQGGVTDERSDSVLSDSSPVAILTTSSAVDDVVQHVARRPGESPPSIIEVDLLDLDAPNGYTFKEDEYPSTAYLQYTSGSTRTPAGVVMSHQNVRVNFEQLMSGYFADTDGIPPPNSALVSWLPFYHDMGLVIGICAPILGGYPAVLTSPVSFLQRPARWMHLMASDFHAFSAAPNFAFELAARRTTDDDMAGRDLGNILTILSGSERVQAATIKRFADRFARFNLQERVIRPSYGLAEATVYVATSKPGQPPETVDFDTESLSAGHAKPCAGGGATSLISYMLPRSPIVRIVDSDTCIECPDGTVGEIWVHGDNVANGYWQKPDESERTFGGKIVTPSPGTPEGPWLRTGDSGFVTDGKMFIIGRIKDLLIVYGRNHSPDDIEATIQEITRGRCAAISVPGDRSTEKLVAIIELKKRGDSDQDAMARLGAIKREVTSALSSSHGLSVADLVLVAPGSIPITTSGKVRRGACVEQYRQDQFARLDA
Briefly: Fluorescence polarization aasay to screen for inhibitors that compete for the binding of FadD28 to a bisubstrate Measured in Biochemical System Using Plate Reader - 2147-01_Inhibitor_Dose_CherryPick_Activity. Type of test: functional, Mycobacterium tuberculosis H37Rv. Background: In fluorescence polarisation assays a small probe gives low polarisation when free and higher when bound to something large.

Test [6] in a line: Trypanosoma cruzi growth suppression in host cells – NIH3T3 host cells, beta-gal luminescence, confirmation (AID 2044).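 Note: intracellular parasites grown in NIH/3T3 mouse fibroblasts as host cells; luminescent beta-galactosidase reporter signal from transgenic T. cruzi replicating inside host cells; inhibitors lower the luminescence signal.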 It counts as functional, cell-based.
A short description of test [7]: NIH3T3 cell viability loss – ATP luminescence, mouse fibroblasts, counter-screen, dose response (AID 2010).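 Note: cells exposed to compound for about 90 hours before reading.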 Type of test: functional, cell-based.
Test [8] addresses T3, Fatty acid synthase (Homo sapiens, UniProt P49327). Briefly: inhibition of human FAS-TE enzyme activity – biochemical, kinetic fluorescence intensity, dose response (AID 624326).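 Note: rate of fluorescence rise from hydrolysis of a fluorogenic O-methyl fluorescein ester substrate.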 It counts as functional.
The target in test [9] is Photoreceptor-specific nuclear receptor (Homo sapiens, UniProt Q9Y5X4). Type of test: functional, cell-based.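 Note: CHO-S cells with Gal4-NCOR and VP16-NR2E3 two-hybrid luciferase reporter.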
Test [10] addresses T3, Fatty acid synthase. As to the kind of experiment: inhibition of human FAS-TE enzyme activity – biochemical, endpoint fluorescence intensity, uHTS hits, dose response (AID 624327).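 Note: fluorescence from hydrolysis of an O-methyl fluorescein acyl ester substrate by the enzyme.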 Type of test: functional.
Test [11] addresses T4, DNA repair protein RAD52 homolog (Homo sapiens, UniProt P43351).
T4 sequence (P43351 whole entry): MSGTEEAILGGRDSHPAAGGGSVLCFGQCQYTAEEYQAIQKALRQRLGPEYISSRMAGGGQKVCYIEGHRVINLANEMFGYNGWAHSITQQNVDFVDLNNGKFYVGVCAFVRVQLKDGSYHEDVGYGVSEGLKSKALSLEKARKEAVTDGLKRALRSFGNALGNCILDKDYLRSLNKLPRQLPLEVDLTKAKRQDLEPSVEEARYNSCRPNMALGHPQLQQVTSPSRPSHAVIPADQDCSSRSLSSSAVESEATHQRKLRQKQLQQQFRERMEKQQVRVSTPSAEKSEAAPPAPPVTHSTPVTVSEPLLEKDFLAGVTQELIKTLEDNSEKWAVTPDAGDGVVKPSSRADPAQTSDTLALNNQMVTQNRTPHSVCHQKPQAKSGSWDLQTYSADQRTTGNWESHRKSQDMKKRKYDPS
Type of test: functional, biochemical.

The target of test [12] is T5, DNA repair and recombination protein RAD54-like (Homo sapiens, UniProt Q92698).
T5 sequence (Q92698 whole entry): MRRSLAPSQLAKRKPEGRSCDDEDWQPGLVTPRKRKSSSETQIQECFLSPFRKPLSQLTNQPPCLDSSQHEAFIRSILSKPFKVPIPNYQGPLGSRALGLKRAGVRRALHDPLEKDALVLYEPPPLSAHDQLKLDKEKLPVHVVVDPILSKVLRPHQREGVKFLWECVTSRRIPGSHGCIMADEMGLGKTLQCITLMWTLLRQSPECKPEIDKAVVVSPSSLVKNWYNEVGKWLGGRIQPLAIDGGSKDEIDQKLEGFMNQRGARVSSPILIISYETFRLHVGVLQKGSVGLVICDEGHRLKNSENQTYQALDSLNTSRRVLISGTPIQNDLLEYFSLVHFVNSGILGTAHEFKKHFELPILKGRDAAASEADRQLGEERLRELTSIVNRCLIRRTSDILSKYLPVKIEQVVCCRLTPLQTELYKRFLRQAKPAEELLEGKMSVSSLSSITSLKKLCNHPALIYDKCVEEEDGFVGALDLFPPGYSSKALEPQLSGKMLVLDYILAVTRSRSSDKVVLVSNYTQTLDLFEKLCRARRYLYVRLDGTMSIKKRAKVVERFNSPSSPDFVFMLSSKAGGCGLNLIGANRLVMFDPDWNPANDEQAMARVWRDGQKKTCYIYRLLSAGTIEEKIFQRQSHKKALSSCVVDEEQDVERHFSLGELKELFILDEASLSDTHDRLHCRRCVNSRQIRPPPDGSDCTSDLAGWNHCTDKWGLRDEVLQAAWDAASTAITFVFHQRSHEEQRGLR
As to the kind of experiment: RAD54 Holliday junction migration blockers – biochemical, fluorescence, cherry-picked samples, dose series, confirmation (AID 651657). It counts as functional.

Test [13] deals with T6, Zinc finger protein mex-5 (Caenorhabditis elegans, UniProt Q9XUB2).
T6 sequence (Q9XUB2 whole entry): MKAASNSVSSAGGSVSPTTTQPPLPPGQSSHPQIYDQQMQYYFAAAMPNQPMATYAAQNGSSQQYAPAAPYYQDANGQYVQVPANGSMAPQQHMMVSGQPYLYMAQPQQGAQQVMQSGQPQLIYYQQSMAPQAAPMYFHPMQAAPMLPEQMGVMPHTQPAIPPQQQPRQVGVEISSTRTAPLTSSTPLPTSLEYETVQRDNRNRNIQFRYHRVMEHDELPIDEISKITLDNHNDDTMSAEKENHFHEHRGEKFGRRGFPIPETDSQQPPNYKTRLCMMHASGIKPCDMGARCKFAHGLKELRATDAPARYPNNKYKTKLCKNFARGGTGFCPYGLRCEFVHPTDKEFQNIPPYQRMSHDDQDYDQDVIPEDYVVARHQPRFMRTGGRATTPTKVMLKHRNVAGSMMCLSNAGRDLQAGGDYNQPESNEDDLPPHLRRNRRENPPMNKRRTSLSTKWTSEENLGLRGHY
Briefly: potency of MEX-5 RNA-binding blockers – biochemical, C. elegans, fluorescence polarization, dose response (AID 1960).

In test [14] the target is T7, RNA-binding protein pos-1 (Caenorhabditis elegans, UniProt G5EF15).
T7 sequence (G5EF15 whole entry): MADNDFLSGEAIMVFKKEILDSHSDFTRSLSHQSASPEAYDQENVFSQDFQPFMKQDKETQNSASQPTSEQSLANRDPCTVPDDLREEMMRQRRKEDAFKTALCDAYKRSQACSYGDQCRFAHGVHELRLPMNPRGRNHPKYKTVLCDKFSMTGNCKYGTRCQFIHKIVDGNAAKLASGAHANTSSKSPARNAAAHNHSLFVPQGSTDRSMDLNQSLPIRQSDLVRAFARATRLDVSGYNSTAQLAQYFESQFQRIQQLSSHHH
Briefly: disruptors of C. elegans POS-1 RNA interaction – biochemical, fluorescence polarization, dose response (AID 1964).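 Note: purified POS-1 fused to maltose binding protein made in E. coli; potency of compounds blocking POS-1 binding to fluorescent RNA.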

Test [15] is described as follows: activation of miR-122 Renilla sensor silencing – cell-based, Huh7 psiCHECK-miR122, Renilla luciferase, cherry-picked, dose response (AID 651956).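 Note: huh7 hepatoma cells stably carrying a psiCHECK-2 miR-122 sensor plasmid; renilla luciferase signal reporting endogenous miR-122 activity after 48 h compound exposure.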 It counts as functional.
Test [16] has as its target T8, Carboxy-terminal domain RNA polymerase II polypeptide A small phosphatase 1 (Homo sapiens, UniProt Q9GZU7).
T8 sequence (Q9GZU7 whole entry): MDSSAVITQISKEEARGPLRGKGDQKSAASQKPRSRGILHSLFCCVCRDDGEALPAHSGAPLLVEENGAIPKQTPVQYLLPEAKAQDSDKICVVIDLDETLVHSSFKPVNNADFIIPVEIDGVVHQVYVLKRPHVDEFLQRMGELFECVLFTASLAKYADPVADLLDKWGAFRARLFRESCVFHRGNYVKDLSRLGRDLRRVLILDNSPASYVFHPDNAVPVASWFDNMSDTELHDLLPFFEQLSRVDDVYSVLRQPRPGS
Briefly: CTDSP1 inhibitors, concentration-response, biochemical, absorbance readout, ultra-high-throughput screen actives (AID 540297). Type of test: functional.

The target in test [17] is T9, Low molecular weight phosphotyrosine protein phosphatase (Homo sapiens, UniProt P24666).
T9 sequence (P24666 whole entry): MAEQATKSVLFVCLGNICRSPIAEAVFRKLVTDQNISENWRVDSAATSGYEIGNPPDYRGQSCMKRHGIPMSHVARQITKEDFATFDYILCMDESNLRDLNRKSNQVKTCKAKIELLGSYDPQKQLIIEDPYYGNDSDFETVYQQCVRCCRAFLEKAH
Type of test: functional. The following applies: read-out: IC50_Mean.

Test [18] addresses T9, Low molecular weight phosphotyrosine protein phosphatase. Type of test: functional. The following applies: read-out: IC50_Mean. The source holds these as a separate data set.

Molecules are shown by their SMILES. Active and inactive are the calls of the source. Where only a bound is given, the exact number is not on record here.

Nuclear receptor subfamily 5 group A member 2, sequence (O00482 whole entry): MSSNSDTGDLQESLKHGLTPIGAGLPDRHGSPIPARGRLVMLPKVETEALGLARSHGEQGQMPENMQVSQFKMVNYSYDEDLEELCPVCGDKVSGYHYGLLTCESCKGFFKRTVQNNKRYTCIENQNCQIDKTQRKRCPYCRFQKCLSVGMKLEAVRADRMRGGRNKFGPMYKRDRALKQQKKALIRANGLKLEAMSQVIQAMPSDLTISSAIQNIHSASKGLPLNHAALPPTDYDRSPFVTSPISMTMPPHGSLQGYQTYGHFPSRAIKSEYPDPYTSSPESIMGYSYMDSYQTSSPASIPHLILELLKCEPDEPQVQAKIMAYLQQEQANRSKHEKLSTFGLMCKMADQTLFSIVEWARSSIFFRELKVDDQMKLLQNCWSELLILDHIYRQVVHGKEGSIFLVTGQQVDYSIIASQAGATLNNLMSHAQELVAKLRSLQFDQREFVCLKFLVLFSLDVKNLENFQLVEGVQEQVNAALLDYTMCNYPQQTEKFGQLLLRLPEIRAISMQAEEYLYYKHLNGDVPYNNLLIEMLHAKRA
Steroidogenic factor 1, sequence (Q13285 whole entry): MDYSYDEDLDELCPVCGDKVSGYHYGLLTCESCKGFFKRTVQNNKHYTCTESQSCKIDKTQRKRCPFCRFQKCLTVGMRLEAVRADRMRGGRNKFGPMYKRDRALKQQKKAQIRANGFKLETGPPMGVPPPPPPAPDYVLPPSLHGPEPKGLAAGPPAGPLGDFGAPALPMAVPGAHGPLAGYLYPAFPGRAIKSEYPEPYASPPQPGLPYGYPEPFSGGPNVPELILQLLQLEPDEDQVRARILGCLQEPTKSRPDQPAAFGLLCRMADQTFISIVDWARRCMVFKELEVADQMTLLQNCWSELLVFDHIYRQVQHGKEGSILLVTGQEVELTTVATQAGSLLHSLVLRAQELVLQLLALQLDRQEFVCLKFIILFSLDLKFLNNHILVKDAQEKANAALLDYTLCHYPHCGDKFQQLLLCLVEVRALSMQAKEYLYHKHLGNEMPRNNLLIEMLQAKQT
T3 sequence (P49327 whole entry, the tested form may be a part): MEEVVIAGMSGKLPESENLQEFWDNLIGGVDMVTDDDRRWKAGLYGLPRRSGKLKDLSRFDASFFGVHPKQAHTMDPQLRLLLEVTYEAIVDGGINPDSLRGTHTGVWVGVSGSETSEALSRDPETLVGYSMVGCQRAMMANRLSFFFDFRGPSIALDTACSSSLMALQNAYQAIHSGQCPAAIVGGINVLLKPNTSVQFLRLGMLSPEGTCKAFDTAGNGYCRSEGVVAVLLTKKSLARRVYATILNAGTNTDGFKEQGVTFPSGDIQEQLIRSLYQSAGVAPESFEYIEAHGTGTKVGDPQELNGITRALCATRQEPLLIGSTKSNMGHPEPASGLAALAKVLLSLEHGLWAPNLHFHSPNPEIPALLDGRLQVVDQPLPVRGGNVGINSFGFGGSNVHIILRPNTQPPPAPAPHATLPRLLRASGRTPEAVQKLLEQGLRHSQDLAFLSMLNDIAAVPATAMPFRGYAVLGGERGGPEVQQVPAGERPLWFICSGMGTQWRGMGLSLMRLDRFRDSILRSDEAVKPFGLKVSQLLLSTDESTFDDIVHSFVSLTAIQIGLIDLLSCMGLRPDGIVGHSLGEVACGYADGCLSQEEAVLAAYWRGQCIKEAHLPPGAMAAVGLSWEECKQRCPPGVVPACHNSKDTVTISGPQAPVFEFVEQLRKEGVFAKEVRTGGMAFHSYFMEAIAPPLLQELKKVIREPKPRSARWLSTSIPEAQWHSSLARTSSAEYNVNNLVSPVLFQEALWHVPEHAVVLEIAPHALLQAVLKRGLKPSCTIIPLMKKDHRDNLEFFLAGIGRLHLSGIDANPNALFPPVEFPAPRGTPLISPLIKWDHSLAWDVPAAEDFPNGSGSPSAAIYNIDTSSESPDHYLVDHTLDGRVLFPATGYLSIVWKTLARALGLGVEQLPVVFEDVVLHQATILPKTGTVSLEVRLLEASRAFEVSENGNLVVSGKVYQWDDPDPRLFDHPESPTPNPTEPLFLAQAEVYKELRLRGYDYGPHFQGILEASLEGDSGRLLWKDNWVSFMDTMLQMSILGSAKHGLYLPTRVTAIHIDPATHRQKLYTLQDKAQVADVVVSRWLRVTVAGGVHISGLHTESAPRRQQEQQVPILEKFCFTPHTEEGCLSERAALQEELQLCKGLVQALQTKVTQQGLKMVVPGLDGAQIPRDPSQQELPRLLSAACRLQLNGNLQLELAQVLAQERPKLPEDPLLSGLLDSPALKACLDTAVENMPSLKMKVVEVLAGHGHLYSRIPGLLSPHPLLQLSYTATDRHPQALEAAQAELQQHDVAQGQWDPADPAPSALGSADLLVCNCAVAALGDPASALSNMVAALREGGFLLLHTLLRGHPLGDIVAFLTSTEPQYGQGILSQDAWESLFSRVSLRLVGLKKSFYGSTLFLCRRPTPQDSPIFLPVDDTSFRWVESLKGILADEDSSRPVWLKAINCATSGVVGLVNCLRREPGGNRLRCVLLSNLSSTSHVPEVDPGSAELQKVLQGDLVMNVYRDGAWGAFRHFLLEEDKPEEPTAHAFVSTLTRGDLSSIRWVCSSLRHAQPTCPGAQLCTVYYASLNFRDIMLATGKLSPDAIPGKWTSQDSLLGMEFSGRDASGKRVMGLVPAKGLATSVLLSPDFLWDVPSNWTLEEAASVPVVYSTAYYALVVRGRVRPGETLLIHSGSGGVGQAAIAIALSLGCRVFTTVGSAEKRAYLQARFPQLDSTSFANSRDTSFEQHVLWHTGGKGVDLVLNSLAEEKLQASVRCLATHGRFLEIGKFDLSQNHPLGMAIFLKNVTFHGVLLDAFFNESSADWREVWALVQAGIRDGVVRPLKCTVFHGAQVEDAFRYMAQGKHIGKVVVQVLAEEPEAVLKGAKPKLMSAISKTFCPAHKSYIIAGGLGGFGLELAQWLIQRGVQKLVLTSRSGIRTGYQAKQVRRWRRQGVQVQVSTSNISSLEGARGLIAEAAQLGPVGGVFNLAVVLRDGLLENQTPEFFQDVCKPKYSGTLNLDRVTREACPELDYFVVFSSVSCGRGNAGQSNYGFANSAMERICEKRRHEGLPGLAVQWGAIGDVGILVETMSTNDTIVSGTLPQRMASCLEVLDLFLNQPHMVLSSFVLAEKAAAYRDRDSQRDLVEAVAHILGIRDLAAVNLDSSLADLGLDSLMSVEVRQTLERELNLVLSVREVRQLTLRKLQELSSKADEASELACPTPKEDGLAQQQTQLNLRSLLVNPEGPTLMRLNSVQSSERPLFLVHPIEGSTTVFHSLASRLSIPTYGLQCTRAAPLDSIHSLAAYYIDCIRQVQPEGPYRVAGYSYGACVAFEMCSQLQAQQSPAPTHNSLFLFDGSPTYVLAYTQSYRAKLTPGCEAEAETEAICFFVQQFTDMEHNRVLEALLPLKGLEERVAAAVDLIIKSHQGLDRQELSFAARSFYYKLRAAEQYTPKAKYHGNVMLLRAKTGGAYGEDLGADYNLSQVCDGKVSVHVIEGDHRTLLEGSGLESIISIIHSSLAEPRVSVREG
Photoreceptor-specific nuclear receptor, sequence (Q9Y5X4 whole entry, the tested form may be a part): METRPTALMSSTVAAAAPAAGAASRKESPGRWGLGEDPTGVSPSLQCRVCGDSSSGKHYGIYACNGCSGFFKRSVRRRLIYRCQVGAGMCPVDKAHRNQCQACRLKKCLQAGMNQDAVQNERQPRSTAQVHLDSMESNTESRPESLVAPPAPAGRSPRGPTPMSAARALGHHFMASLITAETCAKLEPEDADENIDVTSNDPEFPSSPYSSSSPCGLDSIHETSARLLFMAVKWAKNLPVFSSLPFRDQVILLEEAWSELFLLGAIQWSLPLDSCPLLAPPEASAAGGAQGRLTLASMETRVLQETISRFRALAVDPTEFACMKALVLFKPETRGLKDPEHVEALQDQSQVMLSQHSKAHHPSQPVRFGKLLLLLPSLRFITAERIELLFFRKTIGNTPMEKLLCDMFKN

Take `Cc1cc(C)n2c(Nc3c(C)cccc3C)c(-c3cccnc3)nc2n1`: the IC50 in [1] was 28.3 µM (inactive); in test [2], 16.8 µM (active).

Consider `CN(C)C(=O)CSc1ccc(S(=O)(=O)N2CCCC2)cn1`, for which the IC50 in test [1] is 12.9 µM (active); in test [2] it was 20.7 µM (inactive).

Take `O=[N+]([O-])c1cc(F)c(N2CCCCCC2)cc1N1CCNCC1`: the IC50 on Steroidogenic factor 1 was 6.27 µM (active); in test [3] it was 35 µM (inactive); in test [4], 3.99 µM (active).

One may read the AC50 as the concentration at which the activity in the assay is half-maximal. As a reminder, the EC50 is the concentration giving half of the maximal effect. `COC(=O)c1ccc(COc2ccc(/C=N/NC(N)=S)cc2)o1`: the IC50 at Steroidogenic factor 1 was 1.97 µM (active); in test [3] it was 35.9 µM (inactive); in [4], 9.77 µM (active). For the same compound, the AC50 in test [5] was 3.63 µM (active). Further, the EC50 in test [6] was 1.39 µM (active); in test [7], > 60 µM (not active).

Turning to `CCCCCCCCCCCCN1[C@@H](CC(=O)O)c2cc(F)ccc2S1(=O)=O`, the IC50 at Fatty acid synthase [8] is 2.62 µM (active); in test [9] it was 4.28 µM (active); on Fatty acid synthase [10], 2.83 µM (active).

For the compound `CN(C)CCNc1ncnc2sc(-c3ccccc3)cc12`, the AC50 in test [11] was 9 µM (active); in test [12] it was 27.2 µM (active).

`Cc1ccc2cc(/C=C(\C#N)C(N)=O)c(N3CCCCC3)nc2c1`: the EC50 was 30.7 µM (inconclusive) in test [13] and 50.6 µM (active) in test [14]. Moreover, the values for the IC50 in test [1] and in test [2] were 18.4 µM (active) and 36.2 µM (inactive), respectively.

Consider `C[C@@H]1CN([C@@H](C)CO)S(=O)(=O)c2ccc(C#CC3(O)CCCC3)cc2O[C@@H]1CN(C)C(=O)c1cccnc1`, for which the AC50 in test [15] was 7.95 µM (active).

Take `O=C(CN1C(=O)CCC1=O)Nc1ccc(Br)cc1`: the IC50 is 8.78 µM (active) on Steroidogenic factor 1, 35.9 µM (inactive) in test [3] and 11.1 µM (inactive) in [4].

Take `O=C(CSc1nc(-c2ccccc2)nc2ccc(F)cc12)Nc1cccc(C(=O)O)c1`: the IC50 in test [16] was 6.6 µM (active); in test [17] it was 21.4 µM (inactive); in [18] it was 42.2 µM (inactive).
